Measurements: PMC12526275, “hERG Channel Blockade and Antagonistic Interactions of Three Steroidal Alkaloids from Fritillaria Species” (Molecules, 2025)

Experiments:
Assay type in all cases: cell-based
[1] = target: T1, hERG channel mutant S631A (Homo sapiens, UniProt Q12809, S631A); assay: whole-cell patch clamp, transiently transfected HEK293 cells; inhibition at […]
T1 construct: gene KCNH2

[2] = target: T2, hERG channel (human Ether-a-go-go-Related Gene, Kv11.1) (Homo sapiens, UniProt Q12809); assay: manual whole-cell patch clamp, hERG tail currents in stably expressing HEK293 cells
T2 construct: gene KCNH2

[3] = target: T2, hERG channel (human Ether-a-go-go-Related Gene, Kv11.1); assay: manual whole-cell patch clamp, hERG tail currents in stably expressing HEK293 cells; IC50 extrapolated (maximum tested […])

T2 sequence (Q12809 whole entry): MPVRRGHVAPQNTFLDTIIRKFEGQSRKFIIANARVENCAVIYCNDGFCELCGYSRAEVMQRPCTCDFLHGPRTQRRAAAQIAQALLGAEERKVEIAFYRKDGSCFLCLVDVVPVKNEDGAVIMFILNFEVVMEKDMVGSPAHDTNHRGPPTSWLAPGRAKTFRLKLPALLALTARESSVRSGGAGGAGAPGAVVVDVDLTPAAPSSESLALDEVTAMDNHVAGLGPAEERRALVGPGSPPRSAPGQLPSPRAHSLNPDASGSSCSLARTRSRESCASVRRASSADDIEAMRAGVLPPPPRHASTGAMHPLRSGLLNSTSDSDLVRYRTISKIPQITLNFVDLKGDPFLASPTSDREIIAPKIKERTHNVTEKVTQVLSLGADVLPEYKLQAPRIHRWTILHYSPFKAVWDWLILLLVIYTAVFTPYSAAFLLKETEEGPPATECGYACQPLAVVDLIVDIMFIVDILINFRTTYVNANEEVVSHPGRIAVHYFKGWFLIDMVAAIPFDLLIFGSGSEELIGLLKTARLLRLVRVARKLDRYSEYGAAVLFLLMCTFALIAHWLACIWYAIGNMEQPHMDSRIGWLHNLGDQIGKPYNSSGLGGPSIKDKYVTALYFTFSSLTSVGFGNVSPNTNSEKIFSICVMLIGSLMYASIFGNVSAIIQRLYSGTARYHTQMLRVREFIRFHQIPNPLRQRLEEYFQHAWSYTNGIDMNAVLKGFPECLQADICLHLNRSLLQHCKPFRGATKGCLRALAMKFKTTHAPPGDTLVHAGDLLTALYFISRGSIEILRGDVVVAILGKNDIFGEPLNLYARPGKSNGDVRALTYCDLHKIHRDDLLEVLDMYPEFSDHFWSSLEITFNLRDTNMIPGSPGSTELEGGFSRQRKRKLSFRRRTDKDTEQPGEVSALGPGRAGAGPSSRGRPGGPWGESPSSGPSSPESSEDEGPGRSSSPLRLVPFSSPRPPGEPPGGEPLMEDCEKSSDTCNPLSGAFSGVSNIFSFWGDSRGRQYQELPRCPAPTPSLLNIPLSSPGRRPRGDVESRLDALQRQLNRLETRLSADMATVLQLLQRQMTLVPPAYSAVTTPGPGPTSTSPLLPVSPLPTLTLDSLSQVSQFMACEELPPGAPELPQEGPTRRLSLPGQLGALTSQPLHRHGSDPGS
T1 sequence (Q12809 whole entry S631A): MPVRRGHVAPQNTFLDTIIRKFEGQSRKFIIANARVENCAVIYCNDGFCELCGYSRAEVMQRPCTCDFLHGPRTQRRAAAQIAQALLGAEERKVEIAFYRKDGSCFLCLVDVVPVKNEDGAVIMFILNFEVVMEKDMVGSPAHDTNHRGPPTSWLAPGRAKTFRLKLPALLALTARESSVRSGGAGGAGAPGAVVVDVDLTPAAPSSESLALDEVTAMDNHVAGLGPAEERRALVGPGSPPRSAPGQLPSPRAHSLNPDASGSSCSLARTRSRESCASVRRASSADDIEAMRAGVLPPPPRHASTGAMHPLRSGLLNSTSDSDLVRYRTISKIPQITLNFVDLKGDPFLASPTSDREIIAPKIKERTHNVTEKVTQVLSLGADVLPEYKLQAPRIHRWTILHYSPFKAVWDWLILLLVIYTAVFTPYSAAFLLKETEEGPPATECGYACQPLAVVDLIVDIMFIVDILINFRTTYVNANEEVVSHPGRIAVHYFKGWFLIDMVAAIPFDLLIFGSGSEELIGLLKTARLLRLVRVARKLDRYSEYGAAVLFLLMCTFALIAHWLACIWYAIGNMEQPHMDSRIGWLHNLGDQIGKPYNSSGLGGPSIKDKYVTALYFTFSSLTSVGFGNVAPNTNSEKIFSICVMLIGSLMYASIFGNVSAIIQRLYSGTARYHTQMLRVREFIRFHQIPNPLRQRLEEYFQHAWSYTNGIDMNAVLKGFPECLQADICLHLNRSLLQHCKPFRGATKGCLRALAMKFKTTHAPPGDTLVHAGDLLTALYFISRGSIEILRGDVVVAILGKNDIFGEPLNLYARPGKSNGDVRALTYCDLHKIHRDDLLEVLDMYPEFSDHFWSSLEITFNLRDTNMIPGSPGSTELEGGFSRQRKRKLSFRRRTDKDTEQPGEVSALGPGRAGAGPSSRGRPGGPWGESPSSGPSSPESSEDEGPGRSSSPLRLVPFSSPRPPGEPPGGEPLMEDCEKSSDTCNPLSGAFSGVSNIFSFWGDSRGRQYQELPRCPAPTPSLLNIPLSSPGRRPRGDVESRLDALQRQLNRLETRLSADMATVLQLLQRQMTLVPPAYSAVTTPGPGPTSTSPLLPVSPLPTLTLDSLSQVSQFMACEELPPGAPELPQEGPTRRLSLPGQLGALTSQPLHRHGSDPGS

Question: Which results are given for `C[C@H]1CC[C@@H]2N(C1)C[C@H]1[C@@H]3C[C@H]4[C@@H](CC(=O)[C@H]5C[C@@H](O)CC[C@@]54C)[C@@H]3CC[C@@H]1[C@]2(C)O` [peiminine]?
Answer: inhibition at 100 µM [1]: 12.3 ± 1.4%; IC50 [2]: 36.8 ± 2.5 µM

Question: With `C[C@H]1CC[C@@H]2N(C1)C[C@H]1[C@@H]3C[C@H]4[C@@H](CC(=O)[C@H]5C[C@@H](O)CC[C@@]54C)[C@@H]3CC[C@H]1[C@]2(C)O` [sipeimine] as the compound, how does the IC50 [3] read?
Answer: ~47.6 µM

Question: `C[C@H]1CC[C@@H]2N(C1)C[C@H]1[C@@H]3C[C@H]4[C@@H](C[C@H](O)[C@H]5C[C@@H](O)CC[C@@]54C)[C@@H]3CC[C@@H]1[C@]2(C)O` [peimine] was tested. Which IC50 [2] did it give?
Answer: 26.1 ± 3.5 µM
